For data set [1], the target named is T1, Histamine H4 receptor (Homo sapiens, UniProt Q9H3N8). Put plainly: Displacement of [3H]histamine from human recombinant histamine H4 receptor expressed in SK-N-MC cells after 45 mins by competition binding analysis. It counts as cell-based.
Data set [2] addresses T1, Histamine H4 receptor. Put plainly: Agonist activity at human H4 receptor. As to conditions: read-out: EC50.
Data set [3] concerns the target T1, Histamine H4 receptor. The data set is described as follows: Antagonist activity at human histamine H4 receptor expressed in SK-N-MC cells assessed as reduction of histamine-induced inhibition of cAMP-mediated beta-galactosidase reporter gene activity treated 10 mins prior to histamine challenge by microplate reader analysis. Conditions: read-out: pA2 (converted). Format: functional, cell-based.

A short description of data set [4]: AUC in Balb/c mouse at 20 mg/kg, po. As to conditions: plasma. Format: ADME, organism-based. Set-up: dose 20 mg/kg, route oral.
Data set [5] in a line: AUC in Sprague-Dawley rat at 2 mg/kg, iv. Format: ADME, organism-based. Set-up: dose 2 mg/kg, route intravenous. Conditions: plasma.
Data set [6] can be described thus: AUC in Sprague-Dawley rat at 10 mg/kg, po. Format: ADME, organism-based. Set-up: dose 10 mg/kg, route oral. Conditions: plasma.
The next data set deals with Canis familiaris. The data set is described as follows: AUC in beagle dog at 2 mg/kg, iv. It counts as ADME, organism-based, Canis lupus familiaris, Plasma. Set-up: dose 2 mg/kg, route intravenous. Conditions: in vivo.
The nature of data set [7]: AUC in beagle dog at 10 mg/kg, po. Conditions: plasma. Set-up: dose 10 mg/kg, route oral. It counts as ADME, organism-based, Canis lupus familiaris.
Data set [8] concerns Rattus norvegicus. Put plainly: Clearance in Sprague-Dawley rat at 2 mg/kg, iv. It counts as ADME, organism-based. Set-up: dose 2 mg/kg, route intravenous. As to conditions: in vivo.
The subject of data set [9] is Rattus norvegicus. The data set is described as follows: Volume of distribution at steady state in Sprague-Dawley rat at 2 mg/kg, iv. Format: ADME, organism-based. Set-up: dose 2 mg/kg, route intravenous. Conditions: in vivo.
A short description of data set [10]: Volume of distribution at steady state in beagle dog at 2 mg/kg, iv. Conditions: in vivo, read-out: Vdss. Set-up: dose 2 mg/kg, route intravenous. Format: ADME, organism-based, Canis lupus familiaris.
Data set [11] in a line: Half life in Balb/c mouse at 20 mg/kg, po. It counts as ADME, organism-based. Set-up: dose 20 mg/kg, route oral. Conditions: in vivo.
In data set [12] the test system is Rattus norvegicus. Put plainly: Half life in Sprague-Dawley rat at 2 mg/kg, iv. It counts as ADME, organism-based. Set-up: dose 2 mg/kg, route intravenous. Conditions: in vivo.
Data set [13] is described as follows: Half life in Sprague-Dawley rat at 10 mg/kg, po. Set-up: dose 10 mg/kg, route oral. It counts as ADME, organism-based. Conditions: in vivo.
The nature of data set [14]: Half life in beagle dog at 2 mg/kg, iv. As to conditions: in vivo. Set-up: dose 2 mg/kg, route intravenous. Format: ADME, organism-based, Canis lupus familiaris.
Data set [15] is described as follows: Half life in beagle dog at 10 mg/kg, po. Conditions: in vivo. It counts as ADME, organism-based, Canis lupus familiaris. Set-up: dose 10 mg/kg, route oral.
Data set [16] can be described thus: Oral bioavailability in Sprague-Dawley rat at 10 mg/kg. Conditions: in vivo. It counts as ADME, organism-based.
Data set [17] in a line: Oral bioavailability in beagle dog at 10 mg/kg. Format: ADME, organism-based, Canis lupus familiaris. Conditions: in vivo.
Data set [18] can be described thus: Tmax in Balb/c mouse at 20 mg/kg, po. It counts as ADME, organism-based. Set-up: dose 20 mg/kg, route oral. As to conditions: in vivo.
The nature of data set [19]: Tmax in Sprague-Dawley rat at 10 mg/kg, po. As to conditions: in vivo. It counts as ADME, organism-based. Set-up: dose 10 mg/kg, route oral.
Data set [20] is described as follows: Tmax in beagle dog at 10 mg/kg, po. Format: ADME, organism-based, Canis lupus familiaris. Set-up: dose 10 mg/kg, route oral. As to conditions: in vivo.
The nature of data set [21]: Cmax in Balb/c mouse at 20 mg/kg, po. Format: ADME, organism-based. Conditions: in vivo. Set-up: dose 20 mg/kg, route oral.
A short description of data set [22]: Initial plasma concentration in Sprague-Dawley rat at 2 mg/kg, iv. It counts as ADME, organism-based. Set-up: dose 2 mg/kg, route intravenous.
A short description of data set [23]: Cmax in Sprague-Dawley rat at 10 mg/kg, po. It counts as ADME, organism-based. Set-up: dose 10 mg/kg, route oral. As to conditions: in vivo.
The nature of data set [24]: Initial plasma concentration in beagle dog at 2 mg/kg, iv. Format: ADME, organism-based, Canis lupus familiaris. Set-up: dose 2 mg/kg, route intravenous.
A short description of data set [25]: Cmax in beagle dog at 10 mg/kg, po. Set-up: dose 10 mg/kg, route oral. Format: ADME, organism-based, Canis lupus familiaris. Conditions: in vivo.

T1 sequence (Q9H3N8 whole entry): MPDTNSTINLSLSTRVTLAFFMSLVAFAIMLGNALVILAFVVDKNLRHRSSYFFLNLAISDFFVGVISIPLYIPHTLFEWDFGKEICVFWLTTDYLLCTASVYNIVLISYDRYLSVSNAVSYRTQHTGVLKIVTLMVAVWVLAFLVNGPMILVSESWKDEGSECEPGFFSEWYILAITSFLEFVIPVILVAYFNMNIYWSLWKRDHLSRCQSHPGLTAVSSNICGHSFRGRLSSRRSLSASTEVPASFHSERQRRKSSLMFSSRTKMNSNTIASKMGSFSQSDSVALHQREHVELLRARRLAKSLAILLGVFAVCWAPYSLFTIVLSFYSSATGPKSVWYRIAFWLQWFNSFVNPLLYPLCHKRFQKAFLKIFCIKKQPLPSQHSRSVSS

For `Cc1cnc(OCCCCC2CCN(C)CC2)cc1-c1nc2c(C)c(F)ccc2[nH]1`, the Ki on Histamine H4 receptor [1] is 5 nM.

Consider `CN[C@H]1CN(c2cc(C3CCCC3)nc(N)n2)C[C@@H]1O` (relative stereo), for which the Ki at Histamine H4 receptor [1] came to 30 nM. In addition, on Histamine H4 receptor [2], the EC50 is greater than 10000 nM. Further, the Kb on Histamine H4 receptor [3] was 10 nM.

Consider `CCc1cc(N2CC[C@@H](N)C2)nc(N)n1`, for which, at Histamine H4 receptor [2], the EC50 was greater than 10000 nM. For the same molecule, at Histamine H4 receptor [3], the Kb is 12.6 nM.

In the case of `CN[C@@H]1CCN(c2cc(Cc3ccccc3)nc(N)n2)C1`, the exposure (AUC) amounted to 60 µM·h in [4]; 11 µM·h in [5]; 27.8 µM·h in data set [6]; 8.1 µM·h with Canis familiaris; 45 µM·h in data set [7]. The molecule also gave a CL with Rattus norvegicus [8] of 5.5 mL/min/kg. In the data set with Rattus norvegicus [9], this molecule displayed a Vdss of 6.3 L/kg. In addition, the Vd in data set [10] is 15.1 L/kg. Also, the half-life in [11] is 5.2 h; in data set [13], 9.3 h; in data set [14] it was 9.3 h; in data set [15], 10 h. The t1/2 with Rattus norvegicus [12] stood at 5.3 h. Further, the bioavailability came out at 50% in data set [16] and 112% in data set [17]. Also, the EC50 at Histamine H4 receptor [2] is greater than 10000 nM. Further, the Kb at Histamine H4 receptor [3] is 10 nM. The Tmax in data set [18] came to 0.5 h; in [19] it was 5 h; in data set [20] it was 0.6 h. Further, the Cmax in [21] is 8.5 µM; in [23], 1.6 µM; in [25], 4.2 µM. The C0 in data set [22] came to 19 µM; in [24] it was 2.5 µM.

As to `CN[C@@H]1CCN(c2cc(Cl)nc(N)n2)C1`, the Ki on Histamine H4 receptor [1] is greater than 10000 nM.

Regarding `CN1CCN(C(=O)c2nc3cc(Cl)ccc3[nH]2)CC1`, at Histamine H4 receptor [1], the inhibition constant (Ki) was found to be 20 nM.

As for `CN1CCN(c2cc(C3CCCC3)nc(N)n2)CC1`, on Histamine H4 receptor [1], the Ki worked out at 1.4 nM. For the same molecule, the 50% effective concentration (EC50) at Histamine H4 receptor [2] was greater than 10000 nM. For the same molecule, the Kb on Histamine H4 receptor [3] was 0.126 nM.

Consider `CN[C@@H]1CCN(c2cc(C34CC5CC(CC(C5)C3)C4)nc(N)n2)C1`, for which the Ki on Histamine H4 receptor [1] came out at 1.7 nM. The EC50 at Histamine H4 receptor [2] is greater than 10000 nM. In addition, the Kb on Histamine H4 receptor [3] is less than 0.1 nM.

`Nc1nc(C2CCCC2)cc(N2C[C@H]3CCCN[C@H]3C2)n1`: the Ki at Histamine H4 receptor [1] was 1.8 nM. In addition, at Histamine H4 receptor [2], the half-maximal effective concentration (EC50) is greater than 10000 nM. Also, the Kb on Histamine H4 receptor [3] was less than 0.1 nM.

With `CN1CCN(C(=O)c2cc3c([nH]2)CCCC3)CC1`, the Ki on Histamine H4 receptor [1] was determined as 20 nM.

For `CN1CCN(c2ncnc3c2oc2ccc(Cl)cc23)CC1`, the Ki on Histamine H4 receptor [1] came out at 5 nM.

On to `CCCCc1cc(N2CC[C@@H](NC)C2)nc(N)n1`, for which the Ki at Histamine H4 receptor [1] worked out at 1.5 nM. Further, at Histamine H4 receptor [2], the concentration for a half-maximal effect (EC50) was greater than 10000 nM. Moreover, the Kb on Histamine H4 receptor [3] was 3.98 nM.

As for `CN[C@@H]1CCN(c2cc(C3CCCC3)nc(N)n2)C1`, on Histamine H4 receptor [1], the Ki is 1.1 nM. The EC50 on Histamine H4 receptor [2] is greater than 10000 nM. The Kb at Histamine H4 receptor [3] was 0.251 nM.

Regarding `CN[C@@H]1CCN(c2cc(C3CC3)nc(N)n2)C1`, the EC50 at Histamine H4 receptor [2] is greater than 10000 nM. At Histamine H4 receptor [3], the Kb is 7.94 nM.

Regarding `CN1C[C@@H]2CN(c3cc(C4CCCC4)nc(N)n3)C[C@@H]2C1`, the EC50 at Histamine H4 receptor [2] was greater than 10000 nM. On Histamine H4 receptor [3], the Kb is 20 nM.

As to `Nc1nc(C2CCCC2)cc(N2CC(N)C2)n1`, the Ki at Histamine H4 receptor [1] was found to be 5.5 nM. In addition, the EC50 on Histamine H4 receptor [2] was 1300 nM. In addition, the Kb at Histamine H4 receptor [3] is 25.1 nM.

These data come from ChEMBL document CHEMBL3232922, “Discovery and SAR of 6-alkyl-2,4-diaminopyrimidines as histamine H₄ receptor antagonists” (J Med Chem, 2014).
